Experimental data from patent US5521293A (Lever Brothers Company, Division of Conopco, Inc., priority 1995, dated 1996).

Tests used:
Assay type in all cases: physicochemical
[1] = Krafft point of aqueous dispersion of aldonamide; conditions: 0.1% in water by weight
Procedure: The temperature at and above which surfactants begin to form micelles instead of precipitates is referred to as the Krafft point (Tk) and at this temperature the solubility of a surfactant becomes equal to its CMC (numerical value at which micelles are formed).
The Krafft point was measured by preparing 650 ml of a 0.1% or 1.0% dispersion of aldonamide in water by weight. If the surfactant was soluble at room temperature, the solution was slowly cooled to 0° C. […] (less than zero). If it precipitated out of solution, the temperature at which precipitation occurs was taken as the Krafft point.
If the surfactant was insoluble at :room temperature, the dispersion was slowly heated until the solution became homogeneous. It was then slowly cooled until precipitation occurred. The temperature at which the surfactant precipitates out of solution upon cooling was taken as the Krafft point.

Ross-Miles foam height = experiment: Ross-Miles foam height; set-up: key: X: low water solubility. foam height cannot be measured; conditions: Examples 82-83
Procedure: Since most of the foaming data on surfactants is typically obtained by the Ross-Miles Foam Height Assay (Ross, J. and Miles, G. D. Am Soc. for Testing Material Method D1173-63 Philadelphia, Pa. (1953); Oil & Soap (1958) 62:1260) the foaming ability of these surfactants were acquired using this method.
In the Ross-Miles method, 200 mL of a surfactant solution contained in a pipette of specified dimensions with a 2.9-mm-i.d. orifice is allowed to fall 90 cm onto 50 mL of the same solution contained in a cylindrical vessel maintained at a given temperature by means of a water jacket. The height of the foam produced in the cylindrical vessel is read immediately after all the solution has run out of the pipette and then again after a given amount of time.
Using this method, the foam production (initial foam height in mm) and foam stability (final foam height after 10 minutes in mm) were measured at 0.1% aldonamide concentration, 40° C. and 0 ppm (parts per million) hardness. Aldonamides that were not soluble at 40° C. were measured at about 5°-10° C. above their Krafft points.

[2] = Critical micelle concentration (Wilhelmy plate method); conditions: 60° C.
Procedure: The critical micelle concentration (CMC) is defined as the concentration at which a surfactant forms micelles in aqueous solution. Micellization is the preferred interfacial phenomena, since certain surfactant benefits such as detergency (the solubilization of soils), foaming, wetting or emulsification depend on the formation of these aggregates in solution.
The CMC value of C8 /C10 oxypropyl D-gluconamide was determined by plotting surface tension as a function of log(concentration) and extrapolating linear points to obtain an intersection point. The concentration at this point was taken as the CMC. The technique used was the Wilhelmy plate method and the instrument used was a Lauda Auto-Tensiometer. While wishing not to be bound to theory, it is believed that surfactants with low CMC values form micelles more readily at lower concentrations than those with high CMC values.
The critical micelle concentration (CMC) value of C8 /C10 oxypropyl D-gluconamide (molecular weight=375.02 g/mole, 65.9% C8, 34.1% C10) was determined and is set forth below: […]

Water solubility = conditions: in words
[3] = Effectiveness of adsorption at the interface (surface excess concentration at surface saturation); conditions: for surface excess concentration at surface saturation (Γmax): 60° C. (T=333.15K)
Source text: The surface excess concentration at surface saturation (Γmax) is defined as a measure of the effectiveness of surfactant adsorption at the water/air interface and represents the maximum value to which adsorption can be obtained. Effectiveness of adsorption is related to the interfacial area occupied by the surfactant molecule. The smaller the effective cross-sectional area of a surfactant at the interface, the greater its effectiveness of adsorption. The effectiveness of adsorption is an important factor in determining surfactant properties such as detergency, foaming, wetting or emulsification. While not wishing to be bound by theory, it is believed that surfactants that absorb effectively at the interface tend have tightly packed coherent interfacial films and often provide better surfactant benefits than those with loosely packed noncoherent films. The effectiveness of adsorption of C8 /C10 oxypropyl D-gluconarnide was determined using the Gibbs equation given as:
Γmax =-1/2.303RT(∂γ/∂log[Conc])T
(∂γ/∂log[Conc)T =-24.574971 ergs/cm^2 (which is equivalent to the
slope of a plot of γ versus log[Conc]) R=8.3 14×10^7 ergs/mol K (Gas Constant)
The surface excess concentration at surface saturation (Γmax) of various surfactants were determined and are set forth below: […]

[4] = Area per molecule at the interface; conditions: 60° C.
Source text: The area per molecule of a surfactant at the water/air interface provides information on the degree of packing and the orientation of the adsorbed surfactant molecule. While not wishing to be bound by theory, it is believed that surfactants that have small area per molecule values tend to pack more closely at the interface than those with large area per molecule values. From the surface excess concentration at surface saturation (Γmax), the area per molecule (am) of C8 /C10 oxypropyl D-gluconamide was determined and is given by:
am =1×10^16 /Nav Γmax
Γmax =-1/2·303RT(∂γ/∂log[Conc])T
NAV =6.0221×10^23 per gram mole (Avogadro's Number)
The area per molecule (am) of several surfactants were-determined and are set forth below: […]

[5] = Effectiveness in reducing surface tension (surface pressure at the CMC); conditions: 60° C.
Source text: Effectiveness of a surfactant in reducing surface tension is defined as the maximum reduction in surface tension that can be obtained regardless of the bulk phase surfactant concentration.
As mentioned before, surface tension reduction depends on the replacement of water molecules at the interface by surfactant molecules, therefore the effectiveness of a surfactant in reducing interfacial surface tension should reflect the saturated concentration of surfactant at the interface relative to that in bulk liquid phase. During this process the surface tension of water steadily decreases as bulk phase surfactant concentration increases. This will continue until the concentration reaches the critical micelle concentration (CMC), above which the surface tension remains nearly unchanged and the interface is saturated with surfactant. The surface tension at the CMC is therefore very close to the minimum interfacial tension or maximum surface pressure that the system can achieve. The surface pressure at this point, cmc, is a suitable measure of the effectiveness of a surfactant in reducing surface tension and is given as:
cmc =20+2.3 nRT(Γmax) log[CMC/C20 ]
n=1 which represents the number of ions whose surface concentration changes with the change in liquid phase surfactant concentration.
R=8.314×107 ergs/mol K (Gas Constant)
Γmax =-1/2·303RT(∂γ/∂log [Conc])T=3.85×10^-10 mole/cm^2
CMC/C20 =is the ratio of the critical micelle concentration to the bulk phase surfactant concentration necessary to reduce the surface tension of water by 20 dyn/cm.
The effectiveness of various surfactants in reducing surface tension ( cmc) were determined and are set forth below: […]

[6] = Surface tension at the water/air interface; conditions: 60° C.
Procedure: An important characteristic feature that surfactants have is the tendency for them to absorb at the water/air interface in an oriented manner, thereby altering the interfacial free energy of that surface. The surface free energy per unit area or surface tension (γ), is a measure of this work and may be considered as the minimum amount of work required to bring sufficient surfactant molecules to the surface.
The surface tension (γ) value of C8 /C10 oxypropyl D-gluconamide was determined and is set forth below: […]

[7] = Efficiency in surface tension reduction (pC20)
Source text: Since surface tension reduction depends on the replacement of water molecules at the interface by surfactant molecules, the efficiency of a surfactant in reducing interfacial tension should reflect the concentration of surfactant at the interface relative to that in bulk liquid phase. A suitable measure of efficiency with which a surfactant performs this function can be described as pC20. This is defined as the negative logarithm of the bulk phase surfactant concentration necessary to reduce the surface tension of water by 20 dyn/cm and is given as:
In general, pC20 values are usually close to the minimum concentration needed to saturate the interface with surfactant molecules.

[8] = Micellar shape and structure (packing parameter)
Source text: A theory of micellar structure, based upon the geometry of various micelle shapes and the space occupied by the surfactant has been disclosed by J. N. Israelachvili, D. J. Mitchell and B. W. Ninham in the J. Chem. Soc. Faraday Trans. 2, 1525, 72, (1976) which is given as the packing parameter (p).
VT =V(CH3) +(nc -1)V(CH2) and represents the volume occupied by the hydrophobic groups in the micellar core at a given temperature.
1c =1.50+1.26 nc Å and represents the length of the hydrophobic group in the core.
am =area per molecule or the cross-sectional area occupied by the hydrophilic group at the interface.
nc =total number of carbons in the alkyl chain.
Values obtained from the packing parameter (p) represent the following structures:
The packing parameter (p) of C8 /C10 oxypropyl D-Gluconamide was determined as follows: […]

[9] = listed as Dodecyl D-Gluconamide
[10] = listed as dodecyl D-gluconamide

Krafft Point (0.1%) [1] [°C] | Foam Height Final (symbol) (Ross-Miles foam height; after 10 minutes) | Foam Height Initial (symbol) (Ross-Miles foam height; initial) | CMC / micelle formation (in words) [2, 9] | CMC / micelle formation (in words) [2, 10] | water solubility (Water solubility; [9]) | water solubility (Water solubility; [10]) | surface excess concentration / cross sectional area (in words) [3] | surface excess concentration at surface saturation (Γmax) ([3]; listed as C8 /C10 Oxypropyl D-Gluconamide) | surface excess concentration at surface saturation (Γmax) ([3]; listed as C8 /C10 oxypropyl D-gluconamide) | area per molecule (am) [4] [Å^2] | surface pressure at the CMC (cmc) [5] [dyn/cm] | pC20 (in words) [7] | VT, volume occupied by the hydrophobic groups in the micellar core ([8]; T=333.15° K.) [Å^3] | la, length of the hydrophobic group in the core ([8]; one oxygen atom taken as one methylene group) [Å] | Compound | CMC / micelle formation (in words) [2] | surface tension reduction (in words) [6]
91 | X | X | None | can not form micelles | Insoluble | insoluble in water |  |  |  |  |  |  |  |  | CCCCCCCCCCCCNC(=O)[C@H](O)[C@@H](O)[C@H](O)[C@H](O)CO [H, Dodecyl D-Gluconamide] |  | 
48 |  |  |  |  |  |  | small cross sectional area | 3.85 × 10^-10 mole/cm^2 | 3.85×10^-10 mole/cm^2 | 43.1 | 38.5 | high pC20 value | 379.7 | 17.5 | C8 /C10 oxypropyl D-gluconamide [Q] | forms micelles at a surprising low critical micelle concentration | significant reduction in water surface tension
